In patent US20210228545A1, “METHODS OF TREATING CONDITIONS RELATED TO THE S1P1 RECEPTOR” (Arena Pharmaceuticals, Inc., priority 2018, published 2021):

How the values were obtained:
[1] = short-term high dose; cited from earlier work
[2] = spared nerve injury model; cited from earlier work
[3] = mice; cited from earlier work
[4] = prophylactic oral 1 mg/kg, three times a week; cited from earlier work
[5] = in vivo; cited from earlier work
[6] = Phase II, relapsing-remitting multiple sclerosis; cited from earlier work
[7] = murine; cited from earlier work
CYP2C8 = biological target: T1, CYP2C8 (Homo sapiens, UniProt P10632); test: CYP reaction phenotyping in HLMs with selective chemical inhibitor; type: in vitro ADME
T1 construct: human liver microsomes from a pool of 200 individuals; from tissue; host or cells: human liver microsomes, pool of 200 individuals
T1 sequence (P10632 1-490): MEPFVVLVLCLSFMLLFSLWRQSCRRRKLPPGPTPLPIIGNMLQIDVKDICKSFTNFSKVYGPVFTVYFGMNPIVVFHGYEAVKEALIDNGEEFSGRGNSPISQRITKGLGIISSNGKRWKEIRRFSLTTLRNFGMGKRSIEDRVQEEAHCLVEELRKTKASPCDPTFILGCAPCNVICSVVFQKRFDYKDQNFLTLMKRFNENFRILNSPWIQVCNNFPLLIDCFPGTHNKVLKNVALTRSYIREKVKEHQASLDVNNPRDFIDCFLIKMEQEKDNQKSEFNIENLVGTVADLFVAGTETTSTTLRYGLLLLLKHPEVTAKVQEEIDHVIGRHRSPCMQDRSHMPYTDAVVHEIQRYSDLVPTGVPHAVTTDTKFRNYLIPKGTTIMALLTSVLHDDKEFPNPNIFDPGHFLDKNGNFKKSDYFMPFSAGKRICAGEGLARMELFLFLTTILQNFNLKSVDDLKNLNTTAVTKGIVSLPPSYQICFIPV

Inhibition of conversion of Compound 1 to first oxidative metabolite (CYP2C8)	Inhibition of conversion of Compound 1 to ketone metabolite (CYP2C8)	Inhibition of conversion of Compound 1 to second oxidative metabolite (CYP2C8)	Structure (SMILES)	Effect on ocular infiltrates [1]	Effect on nociceptive behavior [2]	Effect on ovariectomy-induced osteoporosis [3]	Development of EAMG [4]	Adverse event in clinical trials [5]	Effect on MRI lesions and clinical disease activity [6]	Effect on contact hypersensitivity [7]
–	–	–	CCCCCCCCc1ccc(CCC(N)(CO)CO)cc1 [FTY720]	rapidly reduced ocular infiltrates	reduce the nociceptive behavior	relieved ovariectomy-induced osteoporosis	completely prevented	transient asymptomatic bradycardia	reduce the number of lesions detected by magnetic resonance imaging (MRI) and clinical disease activity	impair initiation
85%	60%	47%	Cc1ccc(C)c(OCCCC(C)(C)C(=O)O)c1 [gemfibrozil]	–	–	–	–	–	–	–
